Test results reported in ChEMBL document CHEMBL5365464, “Structure-Based Optimization of the Third Generation Type II Macrocycle TRK Inhibitors with Improved Activity against Solvent-Front, xDFG, and Gatekeeper Mutations” (J Med Chem, 2023).

Columns and labels:
[1] = target: NT-3 growth factor receptor (Homo sapiens, UniProt Q16288); assay: Inhibition of TRKC (unknown origin) using Ser/Thr 06 as peptide substrate incubated for 1 hr in presence of ATP by FRET based Z-LYTE assay
BaF3 [2] = assay: cells; conditions: Mus musculus, BaF3, 72 h
BaF3 [3] = assay: Antiproliferative activity against mouse BaF3 cells harbouring ETV6-NTRK3 fusion protein incubated for 3 days by CCK8 method; conditions: BaF3, 72 h
[4] = target: High affinity nerve growth factor receptor (Homo sapiens, UniProt P04629, G595R); assay: Inhibition of TRKA G595R mutant (unknown origin) expressed in baculovirus expression system Sf9 cells using Ser/Thr 06 as peptide substrate incubated for 1 hr in presence of ATP by FRET based Z-LYTE assay
[5] = target: High affinity nerve growth factor receptor (Homo sapiens, UniProt P04629, G667C); assay: Inhibition of TRKA G667C mutant (unknown origin) expressed in baculovirus expression system Sf9 cells using Ser/Thr 06 as peptide substrate incubated for 1 hr in presence of ATP by FRET based Z-LYTE assay
BaF3 [6] = assay: Antiproliferative activity against mouse BaF3 cells harbouring CD74-NTRK1 G595R mutant fusion protein incubated for 3 days by CCK8 method; assay type: functional, cell-based; conditions: BaF3, 72 h
[7] = target: High affinity nerve growth factor receptor (Homo sapiens, UniProt P04629); assay: Inhibition of N-terminal hexa his tagged TRKA (485 to 795 residues) (unknown origin) expressed in baculovirus expression system Sf9 cells using Ser/Thr 06 as peptide substrate incubated for 1 hr in presence of ATP by FRET based Z-LYTE assay
BaF3 [8] = assay: Antiproliferative activity against mouse BaF3 cells harbouring CD74-NTRK1 fusion protein incubated for 3 days by CCK8 method; conditions: BaF3, 72 h
BaF3 [9] = assay: Antiproliferative activity against mouse BaF3 cells harbouring TRKA-F589L fusion protein incubated for 3 days by CCK8 method; conditions: BaF3, 72 h
BaF3 [10] = assay: Antiproliferative activity against mouse BaF3 cells harbouring CD74-[…] mutant fusion protein incubated for 3 days by CCK8 method; assay type: functional, cell-based; conditions: BaF3, 72 h

Chain of High affinity nerve growth factor receptor (Homo sapiens, UniProt P04629, G595R) (P04629 33-796 G595R limits assumed): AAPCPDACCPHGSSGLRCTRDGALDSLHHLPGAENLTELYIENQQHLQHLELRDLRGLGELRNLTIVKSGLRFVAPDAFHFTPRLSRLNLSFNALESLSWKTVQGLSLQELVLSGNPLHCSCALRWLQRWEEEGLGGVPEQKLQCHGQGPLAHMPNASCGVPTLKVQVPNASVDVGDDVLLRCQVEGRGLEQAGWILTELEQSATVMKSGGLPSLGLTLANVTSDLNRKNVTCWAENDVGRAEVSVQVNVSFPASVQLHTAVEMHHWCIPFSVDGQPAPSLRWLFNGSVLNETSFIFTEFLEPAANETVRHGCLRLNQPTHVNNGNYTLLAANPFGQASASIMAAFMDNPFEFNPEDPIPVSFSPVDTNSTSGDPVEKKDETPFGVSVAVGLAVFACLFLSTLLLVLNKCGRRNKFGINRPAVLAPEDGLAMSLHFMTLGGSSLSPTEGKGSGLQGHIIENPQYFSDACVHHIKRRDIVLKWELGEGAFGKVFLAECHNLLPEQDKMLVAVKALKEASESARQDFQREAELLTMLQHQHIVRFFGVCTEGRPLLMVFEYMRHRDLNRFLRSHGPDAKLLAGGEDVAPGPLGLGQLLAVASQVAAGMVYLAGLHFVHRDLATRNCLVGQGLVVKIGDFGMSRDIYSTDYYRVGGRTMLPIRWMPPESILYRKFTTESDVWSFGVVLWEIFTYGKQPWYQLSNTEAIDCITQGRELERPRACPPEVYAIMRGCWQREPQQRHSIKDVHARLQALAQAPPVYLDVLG
Chain of High affinity nerve growth factor receptor (Homo sapiens, UniProt P04629) (P04629 whole entry, the tested form may be a part): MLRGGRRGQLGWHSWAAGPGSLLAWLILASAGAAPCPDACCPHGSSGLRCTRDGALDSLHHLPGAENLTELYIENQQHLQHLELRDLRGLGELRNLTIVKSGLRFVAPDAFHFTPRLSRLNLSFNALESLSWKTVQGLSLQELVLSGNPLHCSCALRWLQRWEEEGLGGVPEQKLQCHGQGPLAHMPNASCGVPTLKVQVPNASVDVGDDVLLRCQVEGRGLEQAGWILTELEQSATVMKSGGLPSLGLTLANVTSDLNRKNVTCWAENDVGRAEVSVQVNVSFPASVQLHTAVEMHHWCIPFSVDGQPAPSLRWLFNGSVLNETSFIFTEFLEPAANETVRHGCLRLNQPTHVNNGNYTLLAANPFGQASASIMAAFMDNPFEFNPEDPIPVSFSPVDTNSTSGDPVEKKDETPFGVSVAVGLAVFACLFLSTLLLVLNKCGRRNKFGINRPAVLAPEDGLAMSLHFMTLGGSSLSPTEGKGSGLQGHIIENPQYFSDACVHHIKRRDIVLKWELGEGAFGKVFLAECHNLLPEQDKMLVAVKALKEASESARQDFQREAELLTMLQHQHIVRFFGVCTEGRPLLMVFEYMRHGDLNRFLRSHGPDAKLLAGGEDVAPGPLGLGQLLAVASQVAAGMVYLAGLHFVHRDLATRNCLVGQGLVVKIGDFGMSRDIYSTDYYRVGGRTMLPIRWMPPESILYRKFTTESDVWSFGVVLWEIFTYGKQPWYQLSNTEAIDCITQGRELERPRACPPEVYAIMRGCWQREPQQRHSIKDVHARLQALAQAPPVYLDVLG
Chain of High affinity nerve growth factor receptor (Homo sapiens, UniProt P04629, G667C) (P04629 33-796 G667C limits assumed): as the sequence (P04629 33-796 G595R limits assumed) above, with R563G, G635C counted along it
Chain of NT-3 growth factor receptor (Q16288 whole entry): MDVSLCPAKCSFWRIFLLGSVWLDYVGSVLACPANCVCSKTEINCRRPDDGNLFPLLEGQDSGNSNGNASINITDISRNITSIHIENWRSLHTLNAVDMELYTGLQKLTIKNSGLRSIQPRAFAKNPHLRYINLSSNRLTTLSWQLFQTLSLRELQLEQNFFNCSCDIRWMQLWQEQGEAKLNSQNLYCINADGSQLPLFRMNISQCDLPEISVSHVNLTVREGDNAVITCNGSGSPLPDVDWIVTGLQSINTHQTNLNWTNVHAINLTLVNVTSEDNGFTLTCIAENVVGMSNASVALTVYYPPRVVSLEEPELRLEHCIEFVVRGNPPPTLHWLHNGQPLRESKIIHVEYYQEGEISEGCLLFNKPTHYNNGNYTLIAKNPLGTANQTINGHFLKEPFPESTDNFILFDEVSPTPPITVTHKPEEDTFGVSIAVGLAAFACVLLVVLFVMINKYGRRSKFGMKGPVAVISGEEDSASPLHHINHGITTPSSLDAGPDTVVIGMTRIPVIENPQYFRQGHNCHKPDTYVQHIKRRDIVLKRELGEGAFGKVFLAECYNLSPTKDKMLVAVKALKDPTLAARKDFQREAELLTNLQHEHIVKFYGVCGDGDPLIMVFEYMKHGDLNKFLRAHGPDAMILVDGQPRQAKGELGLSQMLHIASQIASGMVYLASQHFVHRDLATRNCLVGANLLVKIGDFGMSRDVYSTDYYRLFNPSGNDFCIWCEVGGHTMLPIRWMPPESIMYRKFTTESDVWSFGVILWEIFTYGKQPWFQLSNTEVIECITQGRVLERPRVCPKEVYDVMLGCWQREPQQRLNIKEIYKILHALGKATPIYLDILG

Structure (SMILES)	IC50 [1] [nM]	IC50 (BaF3 [2]) [nM]	IC50 (BaF3 [3]) [nM]	IC50 [4] [nM]	IC50 [5] [nM]	IC50 (BaF3 [6]) [nM]	IC50 [7] [nM]	IC50 (BaF3 [8]) [nM]	IC50 (BaF3 [9]) [nM]	IC50 (BaF3 [10]) [nM]
Cc1cn(-c2cc(NC(=O)c3cc4cc(c3C)C#Cc3cnc5ccc(nn35)NCCN(C)C(=O)CCCCO4)cc(C(F)(F)F)c2)cn1	5.95	5.51	17.1	124	7.47	172	17.4	33.7		
Cc1c2cc(cc1C(=O)Nc1cc(Cl)cc(C(F)(F)F)c1)OCCCCCCCNC(=O)c1ccc3ncc(n3n1)C#C2				> 1000	8.08		39.8			
Cc1c2cc(cc1NC(=O)Nc1ccc(Cl)c(C(F)(F)F)c1)OCCCCCCCNC(=O)c1ccc3ncc(n3n1)C#C2	42.4									
Cc1cn(-c2cc(NC(=O)c3cc4cc(c3C)C#Cc3cnc5ccc(nn35)C(=O)NCCCCCCO4)cc(C(F)(F)F)c2)cn1	9.45	17.2	541	562	12.2		51.5	416		
Cc1c2cc(cc1C(=O)Nc1cc(C(C)(C)C)nn1-c1ccc(Cl)cc1)OCCCCCCCNC(=O)c1ccc3ncc(n3n1)C#C2	13.5	10.2	70.2	> 1000	14.6		164	103		
Cc1c2cc(cc1C(=O)Nc1cc(N3CCC(N4CCOCC4)CC3)cc(C(F)(F)F)c1)OCCCCCCCNC(=O)c1ccc3ncc(n3n1)C#C2	8.51	3.78	29.5	109	3.35	67.7	26.1	51.1	> 1000	
Cc1c2cc(cc1C(=O)Nc1cc(CN3CCCN(C)CC3)cc(C(F)(F)F)c1)OCCCCCCCNC(=O)c1ccc3ncc(n3n1)C#C2	4.05	1.26	48.4	39	2.79	48.5	10.2	6.74	8.68	48.1
Cc1c2cc(cc1C(=O)Nc1ccc(CN3CCN(C)CC3)c(C(F)(F)F)c1)OCCCCCCCNC(=O)c1ccc3ncc(n3n1)C#C2	11.4	2.25	3030	> 1000	3.55		15.1	32.1		
Cc1c2cc(cc1C(=O)Nc1cc(CN3CCN(C)CC3)cc(C(F)(F)F)c1)OCCCCCCCNC(=O)c1ccc3ncc(n3n1)C#C2				54.8	3.18		15.7			
Cc1cn(-c2cc(NC(=O)c3cc4cc(c3C)C#Cc3cnc5ccc(nn35)NCCC(=O)N(C)CCCCO4)cc(C(F)(F)F)c2)cn1				91.8	5.83		21.1			
Cc1cn(-c2cc(NC(=O)c3cc4cc(c3C)C#Cc3cnc5ccc(nn35)NCCNC(=O)CCCCO4)cc(C(F)(F)F)c2)cn1	7.06	40.9	202	> 1000	8.21	> 1000	24.8	271		
Cc1cn(-c2cc(NC(=O)c3cc4cc(c3C)C#Cc3cnc5ccc(nn35)C(=O)NCCCCCO4)cc(C(F)(F)F)c2)cn1	20.3	8.54	140	> 1000	124		58.1	134		
Cc1cn(-c2cc(NC(=O)c3cc4cc(c3C)C#Cc3cnc5ccc(nn35)C(=O)NCCCCCCCCO4)cc(C(F)(F)F)c2)cn1	27.8	8.21	32.2	> 1000	7.5		63.4	59.7		
Cc1cn(-c2cc(NC(=O)c3cc4cc(c3C)C#Cc3cnc5ccc(nn35)NCCC(=O)NCCCCO4)cc(C(F)(F)F)c2)cn1				85.2	5.29		21			
